Laboratory results as given in patent US20220033434A1, “ANDROGEN RECEPTOR NUCLEIC ACIDS AND USES THEREOF” (Avidity Biosciences, Inc., priority 2016, published 2022).
In the oligonucleotide strings, read from the 5' end, every base follows the letter of its sugar. An asterisk marks phosphorothioate; unmarked linkages are phosphodiester. Other units and linkages are bracketed, terminal groups are in braces. A string of capitals states the bases alone. d = 2'-deoxy (DNA); m = 2'-O-methyl; f = 2'-fluoro

Key:
Assay type in all cases: cell-based, human
[1] = tested on: AR FL(1); test: AR protein knock-down by Western blot after siRNA transfection in 22RV1 cells: AR FL(1); conditions: 5 nM siRNA, 50 h post transfection, compared to controls
Method: (§1) In some instances, a set of AR siRNAs were identified that were predicted to be specific in human and non-human primates (NHP) and cross-reactive with NHPs but not rodent AR mRNA. To identify AR siRNAs that regulate both full length AR and clinically relevant AR splice variants, the search for AR siRNAs was focused primarily, but not exclusively, on exons 1, 2 and 3 of the AR gene, which are common to most AR isoforms. The resulting set of 50 AR siRNAs (Tables 1-3) was assessed in two prostate cancer lines that express high levels of either clinically relevant AR splice variants (22RV1, ATCC) or a full length AR T877A LBD mutant (LNCaP, ATCC). The response of LNCaP tumors in xenograft models to AR antagonists is known to correlate well with clinical responses.
(§2) To monitor their ability to downregulate various AR isoforms, each siRNA was formulated at a single final concentration of 5 nM with a commercially-available transfection reagent (Lipofectamine RNAiMAX, Life Technologies) according to the manufacturer's “forward transfection” instructions. At 50 h (22RV1) and 72 h (LNCaP) post transfection, cells were harvested, and lysed in RIPA buffer (Pierce) supplemented with HALT protease inhibitors (Pierce) using standard procedures. The protein concentration was determined using a BCA protein concentration kit (Pierce). To monitor AR levels in these lysates, proteins (30 ug/lane) were separated by PAGE on BOLT 4-12% Bis-Tris PA gels (Life Technologies), transferred to nitrocellulose using an iBlot dry blot system (Thermo Fisher), and probed with specific antibodies against a region of the N-terminal domain of human AR that is common in known clinically relevant splice variants (N20, Santa Cruz Biotech). A second antibody against α-Tubulin was used as control (P16, Santa Cruz Biotech). Levels of these proteins in the respective cell lysates were quantified on an Odyssey imaging system (LICOR) using appropriate secondary antibodies linked to IRDyes (800CW, 680RD).

[2] = tested on: AR-SV(2); test: AR protein knock-down by Western blot after siRNA transfection in 22RV1 cells: AR-SV(2); conditions: 5 nM siRNA, 50 h post transfection, compared to controls
Method: as §1, §2

[3] = tested on: AR-SV(3); test: AR protein knock-down by Western blot after siRNA transfection in 22RV1 cells: AR-SV(3); conditions: 5 nM siRNA, 50 h post transfection, compared to controls
Method: as §1, §2

[4] = tested on: AR FL (full length AR T877A LBD mutant); test: AR protein knock-down by Western blot after siRNA transfection in LNCaP cells: AR FL; conditions: 5 nM siRNA, 72 h post transfection, compared to controls
Method: as §1, §2

[5] = tested on: AR mRNA; test: AR mRNA downregulation by RT-qPCR at 5 nM siRNA in 22RV1 cells; conditions: 24 hrs post-transfection
Method: (§3) Focusing on siRNAs targeting AR sequences exons 1 and 2, the ability of these siRNAs to downregulate AR mRNA at a concentration of 5 nM was determined by RT-qPCR. For this purpose, siRNAs were transfected into 22RV1 and LNCaP cells as described above. At 24 hrs post-transfection, RNA was harvested from cells using a Qiagen RNeasy® Plus Mini Kit or Stratec InviTrap® RNA Cell HTS96 kit. The concentration of each isolated RNA was determined via A260 measurement using a NanoDrop spectrophotometer. RNA samples were reverse transcribed to cDNA using the High Capacity RNA to cDNA Kit (Life Technologies) according to the manufacturer's instructions. cDNA samples were then quantified by qPCR using AR-specific probes and results normalized to either endogenous β-actin or PPIB using the standard 2^−ΔΔCt method. These studies identified 6 siRNAs that at a concentration of 5 nM down regulated AR mRNA in 22RV1 and LNCaP cells by more than 80% compared to controls (Table 4).

[6] = tested on: AR mRNA; test: AR mRNA downregulation by RT-qPCR at 5 nM siRNA in LNCaP cells; conditions: 24 hrs post-transfection
Method: as §3

XD-01848: AR siRNA with chemical modification, Id # 3101; sense X05391 (SEQ ID NO: 221), antisense X05392 (SEQ ID NO: 222) (sense mGmUfCmAfCmAfCmAfUmUfGmAfAmGfGmCfUmAfUdT*dT; antisense fAfUmAfGmCfCmUfUmCfAmAfUmGfUmGfUmGfAmCdT*dT)
% KD AR Protein 22RV1 AR FL(1) [1]: 87%
% KD AR Protein 22RV1 AR-SV(2) [2]: 31%
% KD AR Protein 22RV1 AR-SV(3) [3]: 27%
% KD AR Protein LNCaP AR FL [4]: 101%

XD-01820: AR siRNA with chemical modification, Id # 2189; sense X05335 (SEQ ID NO: 165), antisense X05336 (SEQ ID NO: 166) (sense mGmUfAmCfCmAfGmAfGmUfCmGfCmGfAmCfUmAfCdT*dT; antisense fGfUmAfGmUfCmGfCmGfAmCfUmCfUmGfGmUfAmCdT*dT)
% KD AR Protein 22RV1 AR FL(1) [1]: 85%
% KD AR Protein 22RV1 AR-SV(2) [2]: 91%
% KD AR Protein 22RV1 AR-SV(3) [3]: 91%
% KD AR Protein LNCaP AR FL [4]: 100%
% KD AR RNA 22RV1 [5]: 46%
% KD AR RNA LNCaP [6]: 59%

XD-01831: AR siRNA with chemical modification, Id # 2847; sense X05357 (SEQ ID NO: 187), antisense X05358 (SEQ ID NO: 188) (sense mGmGfAmAfGmCfUmGfCmAfAmGfGmUfCmUfUmCfUdT*dT; antisense fAfGmAfAmGfAmCfCmUfUmGfCmAfGmCfUmUfCmCdT*dT)
% KD AR Protein 22RV1 AR FL(1) [1]: 57%
% KD AR Protein 22RV1 AR-SV(2) [2]: 54%
% KD AR Protein 22RV1 AR-SV(3) [3]: 59%
% KD AR Protein LNCaP AR FL [4]: 87%

XD-01838: AR siRNA with chemical modification, Id # 2931; sense X05371 (SEQ ID NO: 201), antisense X05372 (SEQ ID NO: 202) (sense mAmAfAmUfUmCfCmGfAmAfGmGfAmAfAmAfAmUfUdT*dT; antisense fAfAmUfUmUfUmUfCmCfUmUfCmGfGmAfAmUfUmUdT*dT)
% KD AR Protein 22RV1 AR FL(1) [1]: 85%
% KD AR Protein 22RV1 AR-SV(2) [2]: 65%
% KD AR Protein 22RV1 AR-SV(3) [3]: 67%
% KD AR Protein LNCaP AR FL [4]: 88%

XD-01819: AR siRNA with chemical modification, Id # 2185; sense X05333 (SEQ ID NO: 163), antisense X05334 (SEQ ID NO: 164) (sense mCmUfGmCfGmUfAmCfCmAfGmAfGmUfCmGfCmGfAdT*dT; antisense fUfCmGfCmGfAmCfUmCfUmGfGmUfAmCfGmCfAmGdT*dT)
% KD AR Protein 22RV1 AR FL(1) [1]: 15%
% KD AR Protein 22RV1 AR-SV(2) [2]: 47%
% KD AR Protein 22RV1 AR-SV(3) [3]: 45%
% KD AR Protein LNCaP AR FL [4]: 92%

XD-01859: AR siRNA with chemical modification, Id # 3481; sense X05413 (SEQ ID NO: 243), antisense X05414 (SEQ ID NO: 244) (sense mGmGfCmAfCmCfUmCfUmCfUmCfAmAfGmAfGmUfUdT*dT; antisense fAfAmCfUmCfUmUfGmAfGmAfGmAfGmGfUmGfCmCdT*dT)
% KD AR Protein 22RV1 AR FL(1) [1]: 87%
% KD AR Protein 22RV1 AR-SV(2) [2]: −23%
% KD AR Protein 22RV1 AR-SV(3) [3]: −49%
% KD AR Protein LNCaP AR FL [4]: 100%
